Patent publication US9981940B2, “Aryl sulfide derivatives and aryl sulfoxide derivatives as acaricides and insecticides” (BAYER CROPSCIENCE AKTIENGESELLSCHAFT, priority 2013, dated 2018)

Key:
Phaedon cochleariae = Phaedon cochleariae spray test (PHAECO); format: in vivo; details: after 7 days; for pest or weed control at 500 g/ha: Phaedon cochleariae, 168 h, read-out: efficacy
Procedure: Phaedon cochleariae—Spray Test (PHAECO)
• Solvent: 78.0 parts by weight of acetone • 1.5 parts by weight of dimethylformamide • Emulsifier: 0.5 part by weight of alkylaryl polyglycol ether
To produce an appropriate active ingredient formulation, 1 part by weight of active ingredient is mixed with the specified amounts of solvent and emulsifier, and the concentrate is diluted to the desired concentration with emulsifier-containing water.
Discs of Chinese cabbage leaves (Brassica pekinensis) are sprayed with an active ingredient formulation of the desired concentration and, after drying, populated with larvae of the mustard beetle (Phaedon cochleariae).
After 7 days, the efficacy in % is determined 100% means that all beetle larvae have been killed; 0% means that none of the beetle larvae have been killed.

[1] = log P by HPLC (OECD Guideline 117), method [a] acidic range; format: physicochemical; details: for logP[a]: HPLC, method [a] acidic range; for chromatographic logP: reversed-phase C18 HPLC column, acidic range
Procedure: (§1) The log P values were determined analogously to OECD Guideline 117 (EC Directive 92/69/EEC) by HPLC (high-performance liquid chromatography) using reversed-phase columns (C 18), by the following methods:
[a] The LC-MS determination in the acidic range is effected at pH 2.7 with 0.1% aqueous formic acid and acetonitrile (contains 0.1% formic acid) as eluents; linear gradient from 10% acetonitrile to 95% acetonitrile.

[2] = log P by HPLC (OECD Guideline 117), method [b] neutral range; format: physicochemical; details: HPLC; for logP[b]: method [b] neutral range; for chromatographic logP: reversed-phase C18 HPLC column, neutral range, pH 7.8
Procedure: as §1
[b] The LC-MS determination in the neutral range is effected at pH 7.8 with 0.001 molar aqueous ammonium hydrogencarbonate solution and acetonitrile as eluents; linear gradient from 10% acetonitrile to 95% acetonitrile.

Tetranychus urticae = Tetranychus urticae spray test, OP-resistant (TETRUR); format: in vivo; details: application rate of 500 g/ha, after 6 days; for pest or weed control at 500 g/ha: Tetranychus urticae, 144 h, read-out: efficacy
Method in brief: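 Mortality as % efficacy (0% = no mites killed) read 6 days after spraying. Formulation: active ingredient in acetone/dimethylformamide plus emulsifier, diluted with emulsifier-containing water, applied to Phaseolus vulgaris leaf discs carrying every life stage of OP-resistant spider mites.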

Boophilus microplus = Boophilus microplus injection test (BOOPMI Inj); format: in vivo; details: application rate of 20 μg/animal, assessed after 7 days by laying of fertile eggs
Procedure: Use Examples Boophilus microplus Injection Test (BOOPMI Inj) • Solvent: dimethyl sulphoxide
To prepare an appropriate active ingredient formulation, 10 mg of active ingredient are mixed with 0.5 ml of solvent and the concentrate is diluted with solvent to the desired concentration.
1 μl of the active ingredient solution is injected into the abdomen of 5 engorged adult female cattle ticks (Boophilus microplus). The animals are transferred into dishes and kept in a climate-controlled room.
The efficacy is assessed after 7 days by laying of fertile eggs. Eggs which are not visibly fertile are stored in a climate-controlled cabinet until the larvae hatch after about 42 days.
An efficacy of 100% means that none of the ticks has laid any fertile eggs; 0% means that all the eggs are fertile.

[3] = pH 2.7, HPLC method [a], read-out: logP[a]
[4] = pH 2.7, HPLC, pH 2.7, read-out: log P[a]

Structure (SMILES): C=CCn1c(OC)nn(-c2cc([S+]([O-])CC(F)(F)F)c(C)cc2F)c1=O (racemic) [Example 183]
- efficacy (Phaedon cochleariae; application rate of 500 g/ha): 100%
- logP[a] [1]: 2.24
- logP[b] [2]: 2.21
- efficacy (Tetranychus urticae): 100%

Structure (SMILES): Cc1cc(F)c(-n2ncn(-c3ccc(F)cc3)c2=O)cc1[S+]([O-])CC(F)(F)F (racemic) [Example 355]
- efficacy (Phaedon cochleariae; application rate of 500 g/ha): 83%
- logP[a] [1]: 2.45
- logP[b] [2]: 2.41
- efficacy (Tetranychus urticae): 90%

Structure (SMILES): Cc1cc(F)c(-n2nc(C)n(C)c2=O)cc1SCC(F)(F)F [Example 10, 2-{2-Fluoro-4-methyl-5-[(2,2,2-trifluoroethyl)sulphanyl]phenyl}-4,5-dimethyl-2,4-dihydro-3H-1,2,4-triazol-3-one]
- pest or weed control at 500 g/ha (Phaedon cochleariae; application rate of 500 g/ha): 100%
- chromatographic logP [1, 3]: 2.42
- chromatographic logP [1, 4]: 2.42
- chromatographic logP [2]: 2.38
- pest or weed control at 500 g/ha (Tetranychus urticae): 90%

Structure (SMILES): Cc1cc(F)c(-n2nc(C)n(C)c2=O)cc1[S+]([O-])CC(F)(F)F (stereo not drawn) [Example 11, 2-{2-Fluoro-4-methyl-5-[(2,2,2-trifluoroethyl)sulphinyl]phenyl}-4,5-dimethyl-2,4-dihydro-3H-1,2,4-triazol-3-one]
- pest or weed control at 500 g/ha (Phaedon cochleariae; application rate of 500 g/ha): 100%
- chromatographic logP [1, 3]: 1.57
- chromatographic logP [1, 4]: 1.57
- chromatographic logP [2]: 1.5
- pest or weed control at 500 g/ha (Tetranychus urticae): 100%

Structure (SMILES): COc1nn(-c2cc(SCC(F)(F)F)c(C)cc2F)c(=O)n1C [Example 93]
- efficacy (Phaedon cochleariae; application rate of 500 g/ha): 100%
- logP[a] [1]: 2.78
- logP[b] [2]: 2.73
- efficacy (Tetranychus urticae): 90%

Structure (SMILES): COc1nn(-c2cc([S+]([O-])CC(F)(F)F)c(C)cc2F)c(=O)n1C (stereo not drawn) [Example 94]
- efficacy (Phaedon cochleariae; application rate of 500 g/ha): 83%
- logP[a] [1]: 1.77
- logP[b] [2]: 1.77

Structure (SMILES): COc1nn(-c2ccc(C(F)(F)F)c(SCC(F)(F)F)c2)c(=O)n1C [Example 95, 5-Methoxy-4-methyl-2-{3-[(2,2,2-trifluoroethyl)sulphanyl]-4-(trifluoromethyl)phenyl}-2,4-dihydro-3H-1,2,4-triazol-3-one]
- pest or weed control at 500 g/ha (Phaedon cochleariae; application rate of 500 g/ha): 83%
- chromatographic logP [1, 3]: 3.74
- chromatographic logP [1, 4]: 3.74
- chromatographic logP [2]: 3.64

Structure (SMILES): COc1nn(-c2cc([S+]([O-])CC(F)(F)F)c(Cl)cc2F)c(=O)n1C (stereo not drawn) [Example 98]
- efficacy (Phaedon cochleariae; application rate of 100 g/ha): 83%
- logP[a] [1]: 2.12
- logP[b] [2]: 2.10
- efficacy (Tetranychus urticae): 100%

Structure (SMILES): COc1ccc(-n2nc(OC)n(C3CC3)c2=O)cc1[S+]([O-])CC(F)(F)F (stereo not drawn) [Example 109]
- efficacy (Phaedon cochleariae; application rate of 500 g/ha): 100%
- logP[a] [1]: 2.34
- logP[b] [2]: 2.30

Structure (SMILES): COc1nn(-c2cc([S+]([O-])CC(F)(F)F)c(C)cc2C)c(=O)n1C1CC1 (stereo not drawn) [Example 119]
- logP[a] [1]: 2.21
- logP[b] [2]: 2.17
- efficacy (Boophilus microplus): 100%
- efficacy (Tetranychus urticae): 90%

Structure (SMILES): Cc1ccc(-n2nc(OC(C)(C)C)n(C)c2=O)cc1SCC(F)(F)F [Example 154]
- efficacy (Phaedon cochleariae; application rate of 500 g/ha): 83%
- logP[a] [1]: 4.55
- logP[b] [2]: 4.45
- efficacy (Tetranychus urticae): 100%

Structure (SMILES): Cc1cc(F)c(-n2nc(OC(C)(C)C)n(C)c2=O)cc1SCC(F)(F)F [Example 157]
- logP[a] [1]: 3.98
- logP[b] [2]: 3.88
- efficacy (Boophilus microplus): 100%
- efficacy (Tetranychus urticae): 100%

Structure (SMILES): C=CCn1c(OC)nn(-c2ccc(C)c(SCC(F)(F)F)c2)c1=O [Example 176]
- efficacy (Phaedon cochleariae; application rate of 500 g/ha): 100%
- logP[a] [1]: 3.87
- logP[b] [2]: 3.81
- efficacy (Tetranychus urticae): 90%

Structure (SMILES): C=CCn1c(OC)nn(-c2ccc(C)c([S+]([O-])CC(F)(F)F)c2)c1=O (stereo not drawn) [Example 179]
- efficacy (Phaedon cochleariae; application rate of 500 g/ha): 100%
- logP[a] [1]: 2.61
- logP[b] [2]: 2.57
- efficacy (Tetranychus urticae): 90%

Structure (SMILES): Cc1cc(F)c(-n2nc(C(F)(F)F)n(N)c2=O)cc1[S+]([O-])CC(F)(F)F (stereo not drawn) [Example 215]
- logP[a] [1]: 2.19
- logP[b] [2]: 2.17
- efficacy (Boophilus microplus): 100%
- efficacy (Tetranychus urticae): 100%

Structure (SMILES): Cc1cc(F)c(-n2nc(S(C)(=O)=O)n(C3CC3)c2=O)cc1[S+]([O-])CC(F)(F)F (stereo not drawn) [Example 228]
- logP[a] [1]: 2.12
- logP[b] [2]: 2.08
- efficacy (Boophilus microplus): 100%
- efficacy (Tetranychus urticae): 90%

Structure (SMILES): Cc1cc(F)c(-n2nc([S+](C)[O-])n(C3CC3)c2=O)cc1[S+]([O-])CC(F)(F)F (stereo not drawn) [Example 231]
- logP[a] [1]: 1.61
- logP[b] [2]: 1.58
- efficacy (Boophilus microplus): 100%
- efficacy (Tetranychus urticae): 100%

Structure (SMILES): CCn1c([S+](C)[O-])nn(-c2cc([S+]([O-])CC(F)(F)F)c(C)cc2F)c1=O (stereo not drawn) [Example 241]
- logP[a] [1]: 1.65
- logP[b] [2]: 1.61
- efficacy (Boophilus microplus): 100%
- efficacy (Tetranychus urticae): 100%

Structure (SMILES): Cc1cc(F)c(-n2nc([S+]([O-])C(C)C)n(C)c2=O)cc1[S+]([O-])CC(F)(F)F (stereo not drawn) [Example 245]
- logP[a] [1]: 1.94
- logP[b] [2]: 1.90
- efficacy (Boophilus microplus): 100%
- efficacy (Tetranychus urticae): 100%

Structure (SMILES): CCn1c([S+]([O-])CC)nn(-c2cc(SCC(F)(F)F)c(C)cc2F)c1=O (stereo not drawn) [Example 253]
- logP[a] [1]: 2.84
- logP[b] [2]: 2.81
- efficacy (Boophilus microplus): 100%
- efficacy (Tetranychus urticae): 100%

Structure (SMILES): CSc1nn(-c2cc([S+]([O-])CC(F)(F)F)c(C)cc2F)c(=O)n1C1CC1 (stereo not drawn) [Example 257]
- logP[a] [1]: 2.45
- logP[b] [2]: 2.40
- efficacy (Boophilus microplus): 100%
- efficacy (Tetranychus urticae): 100%

Structure (SMILES): CCn1c(SC)nn(-c2cc([S+]([O-])CC(F)(F)F)c(C)cc2F)c1=O (stereo not drawn) [Example 270]
- logP[a] [1]: 2.39
- logP[b] [2]: 2.33
- efficacy (Boophilus microplus): 100%
- efficacy (Tetranychus urticae): 100%

Structure (SMILES): Cc1cc(F)c(-n2nnn(C)c2=O)cc1[S+]([O-])CC(F)(F)F (stereo not drawn) [Example 301, 1-{2-Fluoro-4-methyl-5-[(2,2,2-trifluoroethyl)sulphinyl]phenyl}-4-methyl-1,4-dihydro-5H-tetrazol-5-one]
- chromatographic logP [1, 3]: 1.87
- chromatographic logP [1, 4]: 1.87
- chromatographic logP [2]: 1.82
- efficacy (Boophilus microplus): 100%
- pest or weed control at 500 g/ha (Tetranychus urticae): 100%

Structure (SMILES): Cc1cc(F)c(-n2nnn(C)c2=O)cc1SCC(F)(F)F [Example 302, 1-{2-Fluoro-4-methyl-5-[(2,2,2-trifluoroethyl)sulphanyl]phenyl}-4-methyl-1,4-dihydro-5H-tetrazol-5-one]
- chromatographic logP [1, 3]: 2.89
- chromatographic logP [1, 4]: 2.89
- chromatographic logP [2]: 2.86
- efficacy (Boophilus microplus): 100%
- pest or weed control at 500 g/ha (Tetranychus urticae): 100%

Structure (SMILES): Cc1cc(F)c(-n2nn[nH]c2=O)cc1[S+]([O-])CC(F)(F)F (stereo not drawn) [Example 303, 1-{2-Fluoro-4-methyl-5-[(2,2,2-trifluoroethyl)sulphinyl]phenyl}-1,4-dihydro-5H-tetrazol-5-one]
- pest or weed control at 500 g/ha (Phaedon cochleariae; application rate of 500 g/ha): 100%
- chromatographic logP [1, 3]: 1.59
- chromatographic logP [1, 4]: 1.59
- chromatographic logP [2]: 0.37

Structure (SMILES): COC1=CC(=O)N(c2ccc(C(F)(F)F)c(SCC(F)(F)F)c2)C1 [Example 322]
- efficacy (Phaedon cochleariae; application rate of 500 g/ha): 100%
- logP[a] [1]: 3.31
- logP[b] [2]: 3.25

Structure (SMILES): COc1nn(-c2cc(SCC(F)(F)F)c(C)cc2F)c(=O)n1CC(F)(F)F [Example 393]
- logP[a] [1]: 3.50
- logP[b] [2]: 3.47
- efficacy (Boophilus microplus): 100%
- efficacy (Tetranychus urticae): 100%

Structure (SMILES): CCn1c(OCC(F)(F)F)nn(-c2cc([S+]([O-])CC(F)(F)F)c(C)cc2F)c1=O (stereo not drawn) [Example 406]
- logP[a] [1]: 2.82
- logP[b] [2]: 2.78
- efficacy (Boophilus microplus): 100%
- efficacy (Tetranychus urticae): 90%

Structure (SMILES): Cc1cc(F)c(-n2nc(Br)n(C(C)C)c2=O)cc1SCC(F)(F)F [Example 439, 5-Bromo-2-{2-fluoro-4-methyl-5-[(2,2,2-trifluoroethyl)sulphanyl]phenyl}-4-isopropyl-2,4-dihydro-3H-1,2,4-triazol-3-one]
- chromatographic logP [1, 3]: 3.83
- chromatographic logP [1, 4]: 3.83
- chromatographic logP [2]: 3.8
- efficacy (Boophilus microplus): 100%
- pest or weed control at 500 g/ha (Tetranychus urticae): 100%

Structure (SMILES): Cc1cc(F)c(-n2nc(Br)n(C(C)C)c2=O)cc1[S+]([O-])CC(F)(F)F (stereo not drawn) [Example 442, 5-Bromo-2-{2-fluoro-4-methyl-5-[(2,2,2-trifluoroethyl)sulphinyl]phenyl}-4-isopropyl-2,4-dihydro-3H-1,2,4-triazol-3-one]
- chromatographic logP [1, 3]: 2.68
- chromatographic logP [1, 4]: 2.68
- chromatographic logP [2]: 2.62
- efficacy (Boophilus microplus): 100%
- pest or weed control at 500 g/ha (Tetranychus urticae): 100%
